Where no end group is shown, it is not given here.
Key:
[1] = tested on: P. aeruginosa 14 strain (PA14), ancestor strain; type: cell-based, Pseudomonas aeruginosa; conditions: ancestral strain PA14; MH broth, 5 × 10^5 CFU/ml, 96-well serial dilution, 24 h, inhibition of growth by at least 90% (OD595); 3 replicate lines per peptide
Procedure: MIC values were determined following a standard serial dilution protocol, as described elsewhere. Briefly, PA14 cells were grown overnight in MH broth, at 37°C and 200 rpm. Subsequently, cells were diluted 1:100 in MH broth and grown until reaching an optical density at 595 nm (OD595) of 0.1. Then, 100 μl of 5 × 10^5 CFU/ml were inoculated into each well in 96-well plates that contained a serial dilution of AMPs or RPMs. Each plate contained 3 replicate lines per peptide. The MICs were defined as the lowest concentration at which there was inhibition of bacterial growth by at least 90%, after 24 h, by measuring the OD595.
The MIC was determined on 3 occasions: (1) prior to the experiment, to determine the concentration of our focal peptides to be used at the start of the experimental evolution (i.e., MIC of the ancestor strain); (2) at the end of the experimental evolution, detect an increase, or decrease, in the resistance of the experimentally evolved strains to our peptides of interest; (3) to evaluate whether the experimental evolution of a certain treatment was accompanied by an increase, or decrease, in resistance or sensitivity to another antimicrobial (i.e., cross-resistance or collateral-sensitivity).

[2] = tested on: PA14 strains evolved in the presence of an AMP/RPM; test: Fitness cost of evolved strains (growth curves in the absence of AMPs); type: cell-based, Pseudomonas aeruginosa; conditions: growth in MH broth without AMPs, OD595 every 15 min for 24 h, normalised to ancestor; n = 6
Procedure: Bacterial cells were grown overnight in MH broth and then diluted to an OD595 of 0.1. For each strain, 200 μl of culture were transferred into 96-well plates, with 3 technical replicates. Optical density (OD595) was measured every 15 min for 24 h using an Epoch 2 microplate reader (BioTek). Lag time and Vmax were assessed using the plate reader software (Gen5). The values measured in the experimentally evolved strains were divided by the values of their respective ancestors and expressed as lag time fold-change and Vmax fold-change (see “Statistical analysis” section).
Similarly, we normalised both fitness readouts duration of the lag phase (lag time) and maximum slope of the bacterial growth curve (Vmax) to the readouts of the ancestor of the given evolved strain by dividing the values of the evolved strains to that of their respective ancestors. The resulting variable is a fold-change in Vmax and lag time during experimental evolution: Vmax fold-change and lag time fold-change.

Row | Substance | MIC [1] | Lag time fold-change of evolved strains compared to control strains [2]
1 | KIAKRIWKILRRR [PA-13] | 25 µg/mL | 
2 | p-KKKFK [SLM3, specific palmitic acid-modified 5-mer peptide, composed of L-Lysine and/or L-Phenylalanine, part of a 32-peptide library] |  | significantly increased lag times

Source: paper PMC11218975, “The evolution of antimicrobial peptide resistance in Pseudomonas aeruginosa is severely constrained by random peptide mixtures” (PLOS Biology, 2024)
